Active and inactive are the calls of the source. The rule behind the calls is not given here.
What was measured:
Homo sapiens = species: Homo sapiens; experiment: Inhibition of human CDK2/CyclinA at 1 uM using RB protein as substrate in presence of [gamma33P]-ATP by HotSpot assay relative to control
[1] = molecular target: Ribosomal protein S6 kinase alpha-4 (Homo sapiens) (UniProt O75676); experiment: Inhibition of human RPS6KA4 at 1 uM using GRPRTSSFAEG as substrate in presence of [gamma33P]-ATP by HotSpot assay relative to control
[2] = system: EML4-ALK (Homo sapiens), Q9UM73+Q9HC35 [S1206Y]; details: BaF3, time 3-5 weeks
[3] = molecular target: Receptor tyrosine-protein kinase erbB-2 (Homo sapiens, UniProt P04626); experiment: Inhibition of human ERBB2 at 1 uM using poly (Glu, Tyr)4:1 as substrate in presence of [gamma33P]-ATP by HotSpot assay relative to control
[4] = molecular target: Proto-oncogene tyrosine-protein kinase receptor Ret (Homo sapiens, UniProt P07949, V804M); experiment: Inhibition of human RET V804M mutant using RRRRRRRRRRRVYSTDYYRLFNPS as substrate in presence of [gamma33P]-ATP by HotSpot assay
[5] = molecular target: Serine/threonine-protein kinase 4 (Homo sapiens, UniProt Q13043); experiment: Inhibition of human STK4 using KKSRGDYMTMQIG as substrate in presence of [gamma33P]-ATP by HotSpot assay
Serine/threonine-protein kinase 4, sequence (Q13043 whole entry, canonical isoform): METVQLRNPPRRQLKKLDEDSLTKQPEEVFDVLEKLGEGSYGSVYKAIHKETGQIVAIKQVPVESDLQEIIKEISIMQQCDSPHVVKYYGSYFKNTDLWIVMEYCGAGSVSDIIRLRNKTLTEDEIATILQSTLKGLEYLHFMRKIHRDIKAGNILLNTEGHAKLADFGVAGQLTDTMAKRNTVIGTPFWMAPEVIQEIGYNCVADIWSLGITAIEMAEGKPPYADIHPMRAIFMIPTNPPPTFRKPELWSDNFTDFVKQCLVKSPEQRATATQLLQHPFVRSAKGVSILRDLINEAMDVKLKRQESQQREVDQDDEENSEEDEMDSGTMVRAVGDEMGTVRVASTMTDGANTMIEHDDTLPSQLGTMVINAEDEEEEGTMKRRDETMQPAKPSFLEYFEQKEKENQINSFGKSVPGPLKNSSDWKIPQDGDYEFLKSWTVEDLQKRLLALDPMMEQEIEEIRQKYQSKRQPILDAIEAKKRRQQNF

[6] = molecular target: Casein kinase I isoform gamma-3 (Homo sapiens) (UniProt Q9Y6M4); experiment: Inhibition of human CSNK1G3 at 1 uM using KRRRAL[pS]VASLPGL as substrate in presence of [gamma33P]-ATP by HotSpot assay relative to control
BaF3 = experiment: In vivo inhibition of ALK signaling in mouse implanted with mouse BaF3 cells expressing EML4-ALK G1202R mutant assessed as inhibition of ALK phosphorylation at 25 mg/kg, po administered as single dose and measured at 6 to 24 hrs by ELISA; format: functional, organism-based; details: time 6-24 hrs
SU-DHL-1 = details: time 72 hrs
[7] = molecular target: Mitogen-activated protein kinase kinase kinase 7 (Homo sapiens) (UniProt O43318); experiment: Inhibition of human MAP3K7 at 1 uM using casein as substrate in presence of [gamma33P]-ATP by HotSpot assay relative to control
Mitogen-activated protein kinase kinase kinase 7 (Homo sapiens), sequence (O43318 whole entry): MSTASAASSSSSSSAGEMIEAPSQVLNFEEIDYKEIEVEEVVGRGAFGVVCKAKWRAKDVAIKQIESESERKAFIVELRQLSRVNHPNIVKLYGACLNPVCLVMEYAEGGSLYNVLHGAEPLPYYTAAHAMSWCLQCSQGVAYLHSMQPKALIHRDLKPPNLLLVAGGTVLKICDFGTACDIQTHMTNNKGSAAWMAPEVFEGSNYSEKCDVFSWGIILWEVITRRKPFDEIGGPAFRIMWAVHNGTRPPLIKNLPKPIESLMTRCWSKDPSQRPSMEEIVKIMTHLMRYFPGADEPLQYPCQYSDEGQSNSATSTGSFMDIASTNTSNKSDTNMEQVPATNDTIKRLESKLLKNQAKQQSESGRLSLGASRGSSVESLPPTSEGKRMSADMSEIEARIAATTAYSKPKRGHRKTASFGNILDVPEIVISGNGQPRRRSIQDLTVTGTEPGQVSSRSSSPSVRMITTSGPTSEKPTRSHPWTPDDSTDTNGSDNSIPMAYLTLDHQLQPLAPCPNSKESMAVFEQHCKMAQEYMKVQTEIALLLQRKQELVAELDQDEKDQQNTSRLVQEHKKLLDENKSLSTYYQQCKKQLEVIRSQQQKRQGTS

[8] = molecular target: Tyrosine-protein kinase JAK2 (Homo sapiens, UniProt O60674); experiment: Inhibition of human JAK2 using poly (Glu, Tyr)4:1 as substrate in presence of [gamma33P]-ATP by HotSpot assay
[9] = molecular target: Calcium/calmodulin-dependent protein kinase type II subunit gamma (Homo sapiens, UniProt Q13555); experiment: Inhibition of human CAMK2G using KKLNRTLSFAEPG as substrate in presence of [gamma33P]-ATP by HotSpot assay
NCI-H3122 = experiment: Inhibition of ERK phosphorylation in ALK-positive human NCI-H3122 cells at 1 to 1000 nM incubated for 1 hrs by immunoblot analysis; format: cell-based; details: dose 1-1000 nM
[10] = molecular target: Tyrosine-protein kinase Lck (Homo sapiens, UniProt P06239); experiment: Inhibition of human LCK using poly (Glu, Tyr)4:1 as substrate in presence of [gamma33P]-ATP by HotSpot assay
Tyrosine-protein kinase Lck, sequence (P06239 whole entry): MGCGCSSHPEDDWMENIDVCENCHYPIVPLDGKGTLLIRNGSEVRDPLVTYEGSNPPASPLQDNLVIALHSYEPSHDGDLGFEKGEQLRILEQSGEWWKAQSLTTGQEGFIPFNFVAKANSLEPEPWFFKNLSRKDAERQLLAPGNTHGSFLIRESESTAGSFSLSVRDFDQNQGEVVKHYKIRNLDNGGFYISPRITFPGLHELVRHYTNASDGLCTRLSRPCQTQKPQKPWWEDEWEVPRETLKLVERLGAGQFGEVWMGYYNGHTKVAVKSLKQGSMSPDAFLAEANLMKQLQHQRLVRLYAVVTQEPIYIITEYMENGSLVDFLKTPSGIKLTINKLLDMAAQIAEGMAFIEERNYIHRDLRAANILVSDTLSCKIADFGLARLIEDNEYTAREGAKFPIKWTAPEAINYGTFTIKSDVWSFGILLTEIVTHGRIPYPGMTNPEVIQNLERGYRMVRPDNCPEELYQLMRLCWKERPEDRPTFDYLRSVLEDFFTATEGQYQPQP

[11] = molecular target: Testis-specific serine/threonine-protein kinase 2 (Homo sapiens, UniProt Q96PF2); experiment: Inhibition of human TSSK2 using KKKVSRSGLYRSPSMPENLNRPR as substrate in presence of [gamma33P]-ATP by HotSpot assay
Testis-specific serine/threonine-protein kinase 2, sequence (Q96PF2 whole entry): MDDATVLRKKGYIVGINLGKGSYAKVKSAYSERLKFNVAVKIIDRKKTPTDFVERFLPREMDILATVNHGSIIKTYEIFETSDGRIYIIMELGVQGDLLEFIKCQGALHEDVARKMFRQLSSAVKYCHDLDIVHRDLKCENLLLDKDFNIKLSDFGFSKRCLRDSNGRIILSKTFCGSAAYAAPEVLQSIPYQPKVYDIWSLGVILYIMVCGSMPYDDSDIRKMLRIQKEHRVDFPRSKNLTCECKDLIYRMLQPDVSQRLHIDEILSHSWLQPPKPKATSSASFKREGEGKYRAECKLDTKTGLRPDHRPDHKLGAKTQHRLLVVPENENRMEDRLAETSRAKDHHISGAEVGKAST

KARPAS-299 = details: time 72 hrs
[12] = system: EML4-ALK (Homo sapiens), Q9UM73+Q9HC35 [F1174C]; details: BaF3, time 3-5 weeks
[13] = molecular target: Hepatocyte growth factor receptor (Homo sapiens, UniProt P08581); experiment: Inhibition of human MET at 1 uM using poly (Glu, Tyr)4:1 as substrate in presence of [gamma33P]-ATP by HotSpot assay relative to control
[14] = molecular target: MAP kinase-activated protein kinase 5 (Homo sapiens) (UniProt Q8IW41); experiment: Inhibition of human MAPKAPK5 at 1 uM using KKLNRTLSVA as substrate in presence of [gamma33P]-ATP by HotSpot assay relative to control
MAP kinase-activated protein kinase 5 (Homo sapiens), sequence (Q8IW41 whole entry): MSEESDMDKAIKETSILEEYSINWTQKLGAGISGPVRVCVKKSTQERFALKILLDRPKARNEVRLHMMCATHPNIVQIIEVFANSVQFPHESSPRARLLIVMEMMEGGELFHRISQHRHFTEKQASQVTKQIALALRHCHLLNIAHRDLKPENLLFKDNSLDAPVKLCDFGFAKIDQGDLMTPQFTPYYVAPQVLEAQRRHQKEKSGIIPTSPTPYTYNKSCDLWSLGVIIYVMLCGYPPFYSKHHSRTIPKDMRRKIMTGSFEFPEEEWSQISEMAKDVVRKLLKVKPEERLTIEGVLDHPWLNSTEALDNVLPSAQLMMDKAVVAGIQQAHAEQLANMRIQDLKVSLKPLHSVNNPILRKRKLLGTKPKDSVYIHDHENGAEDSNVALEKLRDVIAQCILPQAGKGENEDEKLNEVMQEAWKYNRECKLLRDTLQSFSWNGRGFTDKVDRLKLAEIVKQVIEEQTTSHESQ

[15] = molecular target: Tyrosine-protein kinase Yes (Homo sapiens, UniProt P07947); experiment: Inhibition of human YES1 using poly (Glu, Tyr)4:1 as substrate in presence of [gamma33P]-ATP by HotSpot assay
[16] = molecular target: Ribosomal protein S6 kinase alpha-2 (Homo sapiens, UniProt Q15349); experiment: Inhibition of human RPS6kA2 using KKLNRTLSVA as substrate in presence of [gamma33P]-ATP by HotSpot assay
[17] = molecular target: Homeodomain-interacting protein kinase 3 (Homo sapiens) (UniProt Q9H422); experiment: Inhibition of human HIPK3 at 1 uM using MBP as substrate in presence of [gamma33P]-ATP by HotSpot assay relative to control
Homeodomain-interacting protein kinase 3 (Homo sapiens), sequence (Q9H422 whole entry, looked up): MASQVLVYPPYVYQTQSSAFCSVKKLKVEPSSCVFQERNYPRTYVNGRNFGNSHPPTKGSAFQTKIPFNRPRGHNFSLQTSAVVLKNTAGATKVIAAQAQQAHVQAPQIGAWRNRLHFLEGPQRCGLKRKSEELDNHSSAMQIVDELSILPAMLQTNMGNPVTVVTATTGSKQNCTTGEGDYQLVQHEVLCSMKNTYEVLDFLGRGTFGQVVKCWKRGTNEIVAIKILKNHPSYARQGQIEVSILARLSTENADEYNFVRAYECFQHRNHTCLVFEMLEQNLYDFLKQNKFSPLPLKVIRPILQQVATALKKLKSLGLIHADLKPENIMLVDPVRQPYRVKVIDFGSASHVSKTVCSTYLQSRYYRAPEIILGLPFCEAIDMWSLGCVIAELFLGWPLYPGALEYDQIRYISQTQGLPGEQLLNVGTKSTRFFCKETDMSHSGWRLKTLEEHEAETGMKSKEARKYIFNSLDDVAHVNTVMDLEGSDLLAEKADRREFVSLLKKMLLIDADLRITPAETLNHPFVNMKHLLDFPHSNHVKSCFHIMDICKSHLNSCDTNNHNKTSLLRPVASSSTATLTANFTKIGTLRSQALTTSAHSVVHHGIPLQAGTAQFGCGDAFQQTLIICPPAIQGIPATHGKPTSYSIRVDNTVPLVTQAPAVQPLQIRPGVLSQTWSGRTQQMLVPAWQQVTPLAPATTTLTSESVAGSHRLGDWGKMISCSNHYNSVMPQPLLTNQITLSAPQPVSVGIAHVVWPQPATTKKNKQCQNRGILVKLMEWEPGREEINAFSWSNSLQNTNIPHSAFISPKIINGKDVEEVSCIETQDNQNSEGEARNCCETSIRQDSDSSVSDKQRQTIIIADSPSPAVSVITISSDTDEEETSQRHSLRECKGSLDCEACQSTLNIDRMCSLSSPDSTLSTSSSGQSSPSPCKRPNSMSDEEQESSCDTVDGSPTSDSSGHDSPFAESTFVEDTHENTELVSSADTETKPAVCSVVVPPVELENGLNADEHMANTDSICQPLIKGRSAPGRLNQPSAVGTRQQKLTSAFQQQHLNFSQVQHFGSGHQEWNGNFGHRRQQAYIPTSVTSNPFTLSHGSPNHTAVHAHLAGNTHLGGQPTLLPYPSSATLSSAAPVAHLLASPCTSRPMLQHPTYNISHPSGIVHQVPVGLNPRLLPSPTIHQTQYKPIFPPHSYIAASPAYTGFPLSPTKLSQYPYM

[18] = molecular target: Serine/threonine-protein kinase TAO3 (Homo sapiens) (UniProt Q9H2K8); experiment: Inhibition of human TAOK3 at 1 uM using MBP as substrate in presence of [gamma33P]-ATP by HotSpot assay relative to control
[19] = molecular target: Ephrin type-A receptor 5 (Homo sapiens) (UniProt P54756); experiment: Inhibition of human EPHA5 at 1 uM using poly (Glu, Tyr)4:1 as substrate in presence of [gamma33P]-ATP by HotSpot assay relative to control
Ephrin type-A receptor 5 (Homo sapiens), sequence (P54756 whole entry): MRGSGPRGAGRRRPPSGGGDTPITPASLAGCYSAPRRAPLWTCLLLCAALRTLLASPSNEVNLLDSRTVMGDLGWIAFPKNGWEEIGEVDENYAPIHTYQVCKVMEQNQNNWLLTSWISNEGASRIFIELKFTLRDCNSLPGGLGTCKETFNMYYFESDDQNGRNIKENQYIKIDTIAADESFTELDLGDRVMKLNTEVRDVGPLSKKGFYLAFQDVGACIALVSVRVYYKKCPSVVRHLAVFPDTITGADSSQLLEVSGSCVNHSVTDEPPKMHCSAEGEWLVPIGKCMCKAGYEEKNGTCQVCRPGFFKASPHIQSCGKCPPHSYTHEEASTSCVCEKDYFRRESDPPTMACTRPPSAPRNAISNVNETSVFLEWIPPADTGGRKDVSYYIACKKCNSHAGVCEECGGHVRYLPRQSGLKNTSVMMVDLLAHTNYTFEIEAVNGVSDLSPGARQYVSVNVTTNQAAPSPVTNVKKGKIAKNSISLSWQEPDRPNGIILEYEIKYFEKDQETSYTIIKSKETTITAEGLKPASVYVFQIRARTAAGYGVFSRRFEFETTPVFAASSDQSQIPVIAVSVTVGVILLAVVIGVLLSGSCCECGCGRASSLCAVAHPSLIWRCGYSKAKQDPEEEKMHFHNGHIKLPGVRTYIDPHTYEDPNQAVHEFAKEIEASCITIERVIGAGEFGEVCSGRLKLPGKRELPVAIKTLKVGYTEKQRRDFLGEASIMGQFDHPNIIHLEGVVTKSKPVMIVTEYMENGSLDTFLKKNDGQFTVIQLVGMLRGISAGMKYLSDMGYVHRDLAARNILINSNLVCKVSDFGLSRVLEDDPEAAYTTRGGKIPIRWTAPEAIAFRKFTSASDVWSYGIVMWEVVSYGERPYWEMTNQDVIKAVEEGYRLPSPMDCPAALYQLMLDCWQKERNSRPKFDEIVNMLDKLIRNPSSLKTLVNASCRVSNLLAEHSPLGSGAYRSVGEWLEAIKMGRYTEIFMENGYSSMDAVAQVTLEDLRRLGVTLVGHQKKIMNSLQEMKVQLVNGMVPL

[20] = system: EML4-ALK (Homo sapiens), Q9UM73+Q9HC35 [I1171N]; details: BaF3, dose 750.0 nmol/L, time 3-5 weeks
[21] = molecular target: Serine/threonine-protein kinase Nek2 (Homo sapiens) (UniProt P51955); experiment: Inhibition of human NEK2 at 1 uM using MBP substrate in presence of [gamma33P]-ATP by HotSpot assay relative to control
[22] = molecular target: Serine/threonine-protein kinase PAK 1 (Homo sapiens) (UniProt Q13153); experiment: Inhibition of human PAK1 at 1 uM using RRRLSFAEPG as substrate in presence of [gamma33P]-ATP by HotSpot assay relative to control
[23] = molecular target: Mitogen-activated protein kinase 12 (Homo sapiens) (UniProt P53778); experiment: Inhibition of human P38gamma at 1 uM using MBP as substrate in presence of [gamma33P]-ATP by HotSpot assay relative to control
Mitogen-activated protein kinase 12 (Homo sapiens), sequence (P53778 whole entry): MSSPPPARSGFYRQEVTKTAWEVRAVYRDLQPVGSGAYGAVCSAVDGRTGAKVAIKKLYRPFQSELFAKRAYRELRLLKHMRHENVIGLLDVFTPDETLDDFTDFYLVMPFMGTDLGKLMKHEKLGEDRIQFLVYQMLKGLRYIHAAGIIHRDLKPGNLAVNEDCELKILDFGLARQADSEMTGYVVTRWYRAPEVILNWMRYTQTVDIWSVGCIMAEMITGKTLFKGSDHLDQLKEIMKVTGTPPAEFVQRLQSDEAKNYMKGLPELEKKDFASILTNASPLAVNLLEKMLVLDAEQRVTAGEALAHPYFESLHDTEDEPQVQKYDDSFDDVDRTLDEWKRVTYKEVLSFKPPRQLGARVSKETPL

Ephrin type-B receptor 1 = Ephrin type-B receptor 1 (Homo sapiens, UniProt P54762); experiment: Inhibition of human EPHB1 using poly (Glu, Tyr)4:1 as substrate in presence of [gamma33P]-ATP by HotSpot assay
[24] = molecular target: Mitogen-activated protein kinase 3 (Homo sapiens) (UniProt P27361); experiment: Inhibition of human MAPK3 at 1 uM using MBP as substrate in presence of [gamma33P]-ATP by HotSpot assay relative to control

COc1cc(N2CCC(N3CCN(C)CC3)CC2)ccc1Nc1ncc(Cl)c(Nc2ccccc2P(C)(C)=O)n1 [BRIGATINIB]
inhibition (Homo sapiens): < 90%
inhibition [1]: < 90%
IC90 [2]: 109 nM
inhibition [3]: < 90%
IC50 [4]: 22 nM
IC50 [5]: > 1000 nM
inhibition [6]: < 90%
inhibition (BaF3): Active
GI50 (SU-DHL-1): 9 nM
inhibition [7]: < 90%
IC50 [8]: 154 nM
IC50 [9]: 48 nM
inhibition (NCI-H3122): Active
IC50 [10]: 512 nM
IC50 [11]: 138 nM
GI50 (KARPAS-299): 10 nM
IC90 [12]: 160 nM
inhibition [13]: < 90%
inhibition [14]: < 90%
IC50 [15]: 19 nM
IC50 [16]: 13 nM
inhibition [17]: < 90%
inhibition [18]: < 90%
inhibition [19]: < 90%
inhibition [20]: Active
inhibition [21]: < 90%
inhibition [22]: < 90%
inhibition [23]: < 90%
IC50 (Ephrin type-B receptor 1): > 1000 nM
inhibition [24]: < 90%

From ChEMBL document CHEMBL5696443 (Clin Cancer Res, 2016)
